The results in this text go back to patent US11739051B2 (ALEXION PHARMA INTERNATIONAL OPERATIONS UNLIMITED COMPANY, priority 2018, dated 2023).

For series [1] the following is noted: 5 g lab-scale Process C crystallization; for D10 (μm) / D50 (μm) / D90 (μm): ethanol charge time and temperature vary per example; for >100 (%): particles greater than 100 μm; for <2 (%): particles less than 2 μm; for D90/D50: ratio of D90 to D50. On the procedure:
Particle size distribution (PSD) was analyzed by LALLS on a commercial laser particle size analyzer (Malvern Instruments Ltd. Mastersizer 3000™) instrument, equipped with a 300 mm reverse Fourier lens with a small volume automated liquid sample dispersion unit (Malvern, Hydro MV™). The sample dispersion medium was paraffin oil. Samples taken from each of the batches were analyzed sequentially. Each sample was introduced directly into the small volume sample dispersion unit to study the disaggregation under influence of stirring only. Thereafter sonication was applied at low power (20%) in 60 seconds. This was repeated until a stable reading was obtained.
(§1) Each mixture was then transferred to a 250 mL lab reactor via a series of 0.45 and 0.22 μm HPLC filters for polish filtration, and 2×1 mL water was used for rinsing (total amount water added: 19 mL, which gives an ethanol amount of 76 mL for an ethanol/water end-ratio of 80/20). After heating of the mixture to correct jacket temperature (35° C., 45° C., 50° C. or 55° C.), ethanol (76 mL) was charged for 1, 2.5 or 4 hours. A syringe pump connected to a 50-mL plastic syringe was used for the charging. Linear cooling profiles were then applied and all examples were cooled at a rate of 0.333° C./min down to 15° C. All mixtures were stirred for an additional 10 minutes at 15° C. before isolation of the solid on a P3 glass filter funnel. In example 8, the same conditions as described above were used, but the speed of the stirrer of the lab reactor was doubled. In example 10, the same conditions as described above were used, but a type different stirrer was used that increased the mass transfer in the lab reactor.

The conditions of series [2]: isolated solid after 5 g lab-scale Process C crystallization. On the procedure:
Purity was analyzed by reverse-phase high-performance liquid chromatography (HLPC) using Agilent® 1100 series HPLC system and a reversed-phase column (Aquasil C18, 4.6×250 mm, 5 μm) at 25°, with the absorbance detector set to 242 or 301 nm. […] The amount of BC-TTM and impurities in the sample solution was determined by the regression line and the area of the standard peaks in the sample chromatogram.
as §1

A short description of series [3]: Specific surface area (SSA) by BET. It counts as physicochemical. The settings on record: N2 adsorption. As for the experimental part: As used herein, the ten “SSA (m^2/g)” refers to specific surface area (SSA) measured in square meters (m^2) per gram (g). SSA was measured by BET according to the method described in Example 4.
Specific Surface Area (SSA) was analyzed by BET on a surface area analyzer (Gemini 2375™ from Micromeritics Instrument Corp.). […] Each sample was filled into a glass tube and “degassed” at 30° C. for 1 h under continuous N2 (g) flow in order to remove all loosely bound molecules on the external surface and from potential channels in the material. Simultaneously, the saturation pressure for the liquid nitrogen used was determined. After weighing the degassed samples, the degassed samples were inserted into the measuring position at −196° C. (boiling point for liquid nitrogen), evacuated and then exposed to a range of partial pressures basically covering the whole range from almost zero to close to 1 under adsorption mode. The lower pressures were used for SSA determination. Higher pressures were used for potential micro pore determination. In order to ascribe the right amount of nitrogen to the substances, the free volume in the tubes was measured with helium gas prior to nitrogen adsorption. The appropriate thickness values for the adsorbed layer (above the point where no absorption took place in micro pores anymore) was determined from a t-plot and subsequently used to correct the calculation by separating the adsorbed nitrogen molecules into either absorbed into potential pore like structures (the “micro pore volume”) or adsorbed onto actual external surface.

Series [4] in a line: Particle size distribution (PSD) by LALLS. The settings on record: for Dx (10)/μm: 10th percentile of particle size, paraffin oil dispersion; for Dx (50)/μm: 50th percentile of particle size; for Dx (90)/μm: 90th percentile of particle size; for >100 μm (%): percentage of particles greater than 100 μm; for <2 μm (%): percentage of particles less than 2 μm. It counts as physicochemical. From the text:
As used herein, the term “Dx(10)/μm” refers to the 10th percentile of particle size (D10) measured in micrometers (μm). As used herein, the terms “Dx(50)/μm” or “median particle size” refer to the 50th percentile particle size (D50). As used herein, the term “Dx(90)/μm” refers to the 90th percentile of particle size (D90).
As used herein, the term “<2 μm (%)” refers to the percentage (%) of particles that are less than 2 μm. As used herein, the term “>100 μm (%)” refers to the percentage (%) of particles that are greater than 100 μm. As used herein, the percentage of particles refers to the percentage based on the population, or number, of particles.
The sample dispersion medium was paraffin oil. […] This was repeated until a stable reading was obtained.
The PSD measurements were done using the following settings: background measurement time, 20 seconds(s); sample measurement time, 20 s; dispersant refractive index, 1.45; particle refractive index, N/A (Fraunhofer), absorption, N/A (Fraunhofer); stirrer speed, 2500 rpm; analysis model: general purpose.

As for “bis-choline tetrathiomolybdate [compound 1]”, in series [1], the “D10 (μm)” value was determined as 21 μm, the “D50 (μm)” value is given as 45 μm, the “D90 (μm)” value worked out at 77 μm and the “>100 (%)” value is 1.4%. In addition, in series [1], the “<2 (%)” value is listed as 1.3% and the D90/D50 is reported as 1.7. Also, in series [2], the “TM2 (% w/w)” value is recorded as less than 0.05 % w/w, the “TM3 (% w/w)” value amounted to 0.18 % w/w and the “Total impurities (% w/w)” value is 0.18 % w/w.

On to “bis-choline tetrathiomolybdate [Batch C-3]”, for which, in series [3] (listed as C-3), the “SSA (m^2/g)” value was 0.12 m^2/g. In series [4] (listed as C-3), the “Dx (10)/μm” value came out at 25.7 μm, the “Dx (50)/μm” value came out at 52.9 μm, the “Dx (90)/μm” value is on record as 97.7 μm and the “>100 μm (%)” value is 9.2%. Besides, in series [4] (listed as C-3), the “<2 μm (%)” value is on record as 1.0%.

“bis-choline tetrathiomolybdate [compound 2]”: in series [1], the “D10 (μm)” value was found to be 25 μm, the “D50 (μm)” value stood at 46 μm, the “D90 (μm)” value stood at 79 μm and the “>100 (%)” value came to 1.9%. Also, in series [1], the “<2 (%)” value is 1.4% and the D90/D50 was determined as 1.7. In series [2], the “TM2 (% w/w)” value was determined as 0.13 % w/w, the “TM3 (% w/w)” value came to 0.45 % w/w and the “Total impurities (% w/w)” value was found to be 0.57 % w/w.

Regarding “bis-choline tetrathiomolybdate [compound 10]”, in series [1], the “D10 (μm)” value worked out at 50 μm, the “D50 (μm)” value turned out to be 95 μm, the “D90 (μm)” value amounted to 161 μm and the “>100 (%)” value amounted to 45%. In series [1], the “<2 (%)” value worked out at 0.0% and the D90/D50 turned out to be 1.7. In series [2], the “TM2 (% w/w)” value is less than 0.05% w/w, the “TM3 (% w/w)” value is recorded as 0.16 % w/w and the “Total impurities (% w/w)” value is 0.16 % w/w.

Take “bis-choline tetrathiomolybdate [compound 5]”: in series [1], the “D10 (μm)” value is on record as 38 μm, the “D50 (μm)” value amounted to 80 μm, the “D90 (μm)” value was 136 μm and the “>100 (%)” value came out at 31%. In series [1], the “<2 (%)” value is on record as 0.0% and the D90/D50 turned out to be 1.7. Also, in series [2], the “TM2 (% w/w)” value was less than 0.05 % w/w, the “TM3 (% w/w)” value was found to be 0.18 % w/w and the “Total impurities (% w/w)” value worked out at 0.18 % w/w.

In the case of “bis-choline tetrathiomolybdate [compound 3]”, in series [1], the “D10 (μm)” value is given as 37 μm, the “D50 (μm)” value was determined as 79 μm, the “D90 (μm)” value came out at 135 μm and the “>100 (%)” value was found to be 30%. Moreover, in series [1], the “<2 (%)” value is reported as 0.4% and the D90/D50 was 1.7. In series [2], the “TM2 (% w/w)” value was less than 0.05 % w/w, the “TM3 (% w/w)” value was 0.14 % w/w and the “Total impurities (% w/w)” value is listed as 0.14 % w/w.

In the case of “bis-choline tetrathiomolybdate [compound 9]”, in series [1], the “D10 (μm)” value is reported as 33 μm, the “D50 (μm)” value is recorded as 61 μm, the “D90 (μm)” value turned out to be 101 μm and the “>100 (%)” value was determined as 11%. In series [1], the “<2 (%)” value stood at 1.0% and the D90/D50 is 1.7. For the same substance, in series [2], the “TM2 (% w/w)” value is recorded as 0.12 % w/w, the “TM3 (% w/w)” value stood at 0.25 % w/w and the “Total impurities (% w/w)” value amounted to 0.37 % w/w.

Consider “bis-choline tetrathiomolybdate [compound 6]”, for which, in series [1], the “D10 (μm)” value came to 42 μm, the “D50 (μm)” value is 87 μm, the “D90 (μm)” value is given as 148 μm and the “>100 (%)” value is 38%. In addition, in series [1], the “<2 (%)” value turned out to be 0.0% and the D90/D50 is on record as 1.7. For the same substance, in series [2], the “TM2 (% w/w)” value is reported as less than 0.05 % w/w, the “TM3 (% w/w)” value amounted to 0.19 % w/w and the “Total impurities (% w/w)” value is listed as 0.19 % w/w.

In the case of “bis-choline tetrathiomolybdate [Batch A-1]”, the “SSA (m^2/g)” value in series [3] (listed as A-1) is 0.52 m^2/g. Besides, in series [4] (listed as A-1), the “Dx (10)/μm” value stood at 10.3 μm, the “Dx (50)/μm” value was found to be 59.4 μm, the “Dx (90)/μm” value was 503 μm and the “>100 μm (%)” value was 42.1%. Further, the “<2 μm (%)” value in series [4] (listed as A-1) stood at 2%.

For “bis-choline tetrathiomolybdate [compound 4]”, in series [1], the “D10 (μm)” value was found to be 33 μm, the “D50 (μm)” value was 56 μm, the “D90 (μm)” value is on record as 92 μm and the “>100 (%)” value worked out at 5.8%. In series [1], the “<2 (%)” value is given as 0.8% and the D90/D50 turned out to be 1.6. Moreover, in series [2], the “TM2 (% w/w)” value was found to be 0.19 % w/w, the “TM3 (% w/w)” value is on record as 0.46 % w/w and the “Total impurities (% w/w)” value is on record as 0.70 % w/w.

On to “bis-choline tetrathiomolybdate [compound 8]”, for which, in series [1], the “D10 (μm)” value is recorded as 57 μm, the “D50 (μm)” value worked out at 102 μm, the “D90 (μm)” value is 164 μm and the “>100 (%)” value amounted to 52%. In addition, in series [1], the “<2 (%)” value amounted to 0.0% and the D90/D50 was found to be 1.6. For the same substance, in series [2], the “TM2 (% w/w)” value is given as less than 0.05 % w/w, the “TM3 (% w/w)” value is recorded as 0.18 % w/w and the “Total impurities (% w/w)” value is 0.18 % w/w.

“bis-choline tetrathiomolybdate [compound 7]”: in series [1], the “D10 (μm)” value amounted to 41 μm, the “D50 (μm)” value was 85 μm, the “D90 (μm)” value turned out to be 143 μm and the “>100 (%)” value was found to be 36%. Moreover, in series [1], the “<2 (%)” value is on record as 0.0% and the D90/D50 is reported as 1.7. Moreover, in series [2], the “TM2 (% w/w)” value is given as less than 0.05 % w/w, the “TM3 (% w/w)” value was found to be 0.18 % w/w and the “Total impurities (% w/w)” value is recorded as 0.18 % w/w.
